The values below come from US10501479B2, “Benzenesulfonyl-asymmetric ureas and medical uses thereof” (HELSINN HEALTHCARE SA, priority 2016, dated 2019).

Values joined by “and” are separate entries in the source; they are usually repeats but may differ in a detail not shown here. Equal entries are not always repeated. Where two headings read alike, the source gives them in different places.

As a reminder, the IC50 is the concentration at which inhibition is half-maximal.

A short description of data set [1]: Plasma protein binding (PPB), mouse. In kind it is in vitro ADME.
The target of data set [2] is T1, GHSR-1a (HEK293/GHSR1a cell line) (Homo sapiens, UniProt Q92847).
T1 construct: expressed in transfected cells; host or cells: HEK293/GHSR1a cell line
T1 sequence (Q92847 whole entry): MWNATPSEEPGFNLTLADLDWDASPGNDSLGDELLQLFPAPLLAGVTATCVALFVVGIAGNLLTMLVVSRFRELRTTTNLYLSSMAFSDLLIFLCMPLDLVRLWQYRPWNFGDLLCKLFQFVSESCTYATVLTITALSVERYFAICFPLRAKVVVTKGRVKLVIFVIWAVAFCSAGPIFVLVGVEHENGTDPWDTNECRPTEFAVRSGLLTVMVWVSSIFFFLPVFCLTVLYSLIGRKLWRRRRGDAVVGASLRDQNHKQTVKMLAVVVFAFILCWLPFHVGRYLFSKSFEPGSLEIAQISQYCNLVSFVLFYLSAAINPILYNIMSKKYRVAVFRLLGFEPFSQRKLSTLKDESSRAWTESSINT
The data set is described as follows: Ghrelin agonist potency (EC50) with calcium FLIPR assay. Conditions: HEK293/GHSR1a, read-out: Activity EC50/EMax: EC50 (ghrelin agonist potency). In kind it is cell-based. The method, boiled down:
(§1)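 Dye preload 30-60 min, RT or 37° C; compound in DMSO. Agonist mode: compound at t=20 sec, Ca2+ read 2 min. Antagonist mode: compound + ghrelin 10 nM at t=20 sec, 2 min read. EC50/IC50 from dose-response curves.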

The nature of data set [3]: Plasma protein binding (PPB), human. In kind it is in vitro ADME. Conditions: read-out: PPB (H) (converted).
Data set [4] has as its target T2, recombinant human ghrelin receptor (HEK293/GRLN) (Homo sapiens, UniProt Q92847).
T2 construct: expressed in transfected cells
The data set is described as follows: Ghrelin inverse agonist potency (EC50) with IP-1 (IP-One HTRF) assay. In kind it is cell-based. To be noted: IP-1 assay. The method, boiled down:
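HEK293/GRLN cells were seeded 18-22 hours before the test, then exposed to compound in stimulation buffer for 1 hour at 37° C, 5% CO2. IP-1 was detected by IP-One HTRF (IP1-d2 plus Tb-cryptate, 1 hour RT), reading 620 and 665 nm; the inverse agonist EC50 was derived from this.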
For orientation: Time-resolved FRET reads energy transfer from a long-lived donor to a nearby acceptor.

Data set [5] has as its target T1, GHSR-1a (HEK293/GHSR1a cell line). The data set is described as follows: Ghrelin antagonist potency (IC50) with calcium FLIPR assay, ghrelin 10 nM. Format: cell-based. In short, it runs like this:
as §1

Data set [6] in a line: Metabolic stability in mouse liver microsomes. Format: in vitro ADME. The method, boiled down:
(§2)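 Parent compound was measured by LC-MS/MS at 0, 10, 30 and 90 min after NADPH-initiated incubation with liver microsomes at 37 °C. Buffer was 100 mM potassium phosphate, pH 7.4; time-zero concentration was taken before NADPH addition.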
A general note: Liver microsomes are a subcellular fraction often used to study metabolism.

The nature of data set [7]: Animal PK study in rat via i.v., p.o. and s.c. administration. In kind it is in vivo. To be noted: rat, i.p.
Data set [8] is described as follows: Metabolic stability in human liver microsomes. In kind it is in vitro ADME. The method, boiled down:
as §2

Data set [9] in a line: Metabolic stability in dog liver microsomes. In kind it is in vitro ADME. The procedure:
Metabolic Stability Study
The metabolic stability of compounds in human, dog, rat and mouse liver microsomes was performed according the experimental conditions reported below:
• a) Prepare the following 5 stock solutions: • 1. Test compound stock solutions: dilute 10 mM solution of dextromethorphan (Dtr) in DMSO, 10 mM solution of diphenhydramine (DPA) in DMSO, 10 mM solution of omeprazole (Ome) in DMSO, 10 mM solution of verapamil (Ver) in DMSO, and 10 mM of an inverse agonist compound in DMSO to 0.25 mM solution each with acetonitrile/water (70/30). • 2. Buffer: 100 mM potassium phosphate Buffer (PBS) at pH 7.4 • 3. Liver microsomes (20 mg/ml): Thaw in 37° C. water bath quickly • 4. 2000 μL: of NADPH regenerating system (1.3 mM). Place this system on ice before use:
• 5. […] The test compound concentration in the wells, measured by LC-MS/MS, represents the concentration at time=0. • f) To determine the test compound concentration when t≠0, pre-incubate the NADPH regenerating system and the incubation plate containing the remaining 320 μL of incubation mixture (microsomes protein and test compound) for 5 minutes at 37° C. • g) Start the incubation reaction by adding 80 μL NADPH regenerating system to each well containing the remaining 320 μL incubation mixture. • h) After 10 min., 30 min., and 90 min. of incubation at 37° C., transfer 100 μL of the incubation mixture (microsomes protein, test compound, and NADPH) into the wells of a stop plate pre-filled with 300 μL of the cold quench solution. Shake well. • i) Centrifuge the stop plate at 5000×g for 10 minutes. Collect and dilute the supernatant 3 times with distilled water. Sample and analyze the test compound concentration for all the wells by LC-MS/MS. Animal PK Studies via i.v. (intravenous), p.o. (orally) and s.c. (subcutaneous) administrations

The nature of data set [10]: Animal PK study in mouse via i.v., p.o. and s.c. administration. Conditions: for Vd / clearance / half-life: plasma; for clearance: read-out: PK CL i.v. Format: in vivo. The method, boiled down:
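Single i.v. (tail vein), s.c. (neck scruff) or p.o. (gavage) dose to mice or rats; oral vehicle 1–5% DMSO/0.5% methylcellulose, i.v./s.c. vehicle 1–5% DMSO in 20% HP-β-cyclodextrin. Plasma sampled 0.083 (i.v./s.c.) or 0.25 to 24 h, analyzed by LC-MS/MS.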

Data set [11] can be described thus: Plasma protein binding (PPB), human. Format: in vitro ADME. To be noted: read-out: PPB (H).
The nature of data set [12]: Plasma protein binding (PPB), mouse. In kind it is in vitro ADME. The source holds these as a separate data set.
[13] abbreviates: HEK293/GRLN, read-out: Activity EC50 (ghrelin inverse agonist potency).
Setting [14] is: HEK293/GHSR1a, ghrelin 10 nM, read-out: Activity IC50 (ghrelin antagonist potency).
Where [15] appears, read: po, 10 mg/kg, p.o., read-out: PK t1/2 p.o.
Setting [16] is: inverse agonist potency, read-out: EC50 (Activity).
[17] abbreviates: ghrelin antagonist potency, read-out: IC50 (Activity).

T2 sequence (Q92847 whole entry): as above

For the compound `COc1cc(S(=O)(=O)Cc2ccc3c(c2)CNC3)ccc1NC(=O)NC(C)c1cccc(Cl)c1Cl.Cl` (centres unmarked) [H1421, 1-(1-(2,3-dichlorophenyl)ethyl)-3-(4-((isoindolin-5-ylmethyl)sulfonyl)-2-methoxyphenyl)urea], the fraction unbound in data set [1] was 0.0034; in data set [3], 0.0037. In addition, the EC50 in data set [2] was over 50 µM; in data set [4] (setting [13]) it was 0.0004 µM. Further, the IC50 in [5] (setting [14]) was found to be 0.0018 µM. Besides, the “Metabolic Stability Study M = mouse” value in data set [6] stood at 38.8 µL/min/mg. Also, the half-life in data set [7] (plasma, ip, read-out: PK t1/2 i.p. (R)) is 19 h. In [7], the “PK CL i.p. (R)” value is 32.7 mL/min/kg. In addition, the “PK Vd i.p. (R)” value in data set [7] turned out to be 54.56 L/kg. The “Metabolic Stability Study H = human” value in data set [8] stood at 13.2 µL/min/mg.

On to `CC(c1ccccc1)N(C)C(=O)Nc1ccc(S(=O)(=O)Cc2ccc3c(c2)CN(C)C3)cc1` (centres unmarked) [H1381, 1-methyl-3-(4-(((2-methylisoindolin-5-yl)methyl)sulfonyl)phenyl)-1-(1-phenylethyl)urea], for which the “Metabolic Stability Study D = dog” value in [9] is 88.7 µL/min/mg. The same compound gave a fraction unbound in [1] of 0.0854. Besides, in [3], the fraction unbound is 0.0906. In data set [10], the “PK F” value was 20.64%. Further, in data set [10] (p.o.), the “PK CL p.o.” value was determined as 295 mL/min/kg and the “PK Vd p.o.” value was 42.87 L/kg. Also, in data set [10] (iv, 5 mg/kg), the Vd is 3.1 L/kg. Moreover, the clearance in data set [10] (iv, 5 mg/kg, i.v.) stood at 63.8 mL/min/kg. Moreover, in [10] (setting [15]), the half-life is 1.68 h. For the same compound, the EC50 in data set [4] (setting [13]) is 0.0221 µM and 0.0331 µM. Besides, the IC50 in data set [5] (setting [14]) is 0.48 µM and 0.257 µM. In addition, the “Metabolic Stability Study M = mouse” value in data set [6] is 68.1 µL/min/mg. For the same compound, in data set [8], the “Metabolic Stability Study H = human” value was 60 µL/min/mg.

On to `Cl.O=C(NCc1cccc(Cl)c1Cl)Nc1ccc(S(=O)(=O)Cc2ccc3c(c2)CNC3)cc1` [H1057, 1-(2,3-dichlorobenzyl)-3-(4-((isoindolin-5-ylmethyl)sulfonyl)phenyl)urea], for which the fraction unbound in data set [11] came to 0.005. This compound also showed a fraction unbound in [12] of 0.005. Also, the “PK F” value in data set [10] turned out to be 1.6%. Also, in [10] (i.v.), the “PK CLiv” value was 26.2 mL/min/kg, the “PK Vdiv” value is 2.18 L/kg and the “PK t1/2iv” value turned out to be 0.96 h. In addition, in data set [10] (p.o.), the “PK CLpo” value was determined as 1371 mL/min/kg, the “PK Vdpo” value was 368.9 L/kg and the “PK t1/2po” value was 3.11 h. In [4] (setting [16]), the EC50 turned out to be 0.0069 µM. In data set [5] (setting [17]), the IC50 was 0.0193 µM. Further, in data set [6], the “Metabolic Stability Study M = mouse” value is 10.8 µL/min/mg. Also, the “Metabolic Stability Study H = human” value in data set [8] came to 12.6 µL/min/mg.

Turning to `COc1cc(S(=O)(=O)Cc2ccc3c(c2)CN(C)C3)ccc1NC(=O)NC(C)c1ccccc1` (centres unmarked) [H1388, 1-(2-methoxy-4-(((2-methylisoindolin-5-yl)methyl)sulfonyl)phenyl)-3-(1-phenylethyl)urea], the values for the fraction unbound in data set [1] and in data set [3] were 0.079 and 0.031, respectively. For the same compound, the EC50 in [2] is over 30 µM; in data set [4] (setting [13]), 0.0046 µM. Moreover, in [10], the “PK F” value is 11.3%. For the same compound, the “PK CL p.o.” value in data set [10] (p.o.) was 675 mL/min/kg. For the same compound, the “PK Vd p.o.” value in data set [10] (p.o.) turned out to be 86.8 L/kg. Moreover, in data set [10] (iv, 5 mg/kg), the Vd is 6.3 L/kg. Besides, in data set [10] (iv, 5 mg/kg, i.v.), the clearance was found to be 77.7 mL/min/kg. Besides, the half-life in data set [10] (iv, 5 mg/kg, i.v., read-out: PK t1/2 i.v.) stood at 0.93 h; in [10] (setting [15]) it was 1.49 h. The IC50 in [5] (setting [14]) amounted to 0.0102 µM. For the same compound, the “Metabolic Stability Study M = mouse” value in data set [6] amounted to 42.4 µL/min/mg. Also, the “Metabolic Stability Study H = human” value in [8] came to 58.1 µL/min/mg.

On to `COc1ccc([C@H](C)NC(=O)Nc2ccc(S(=O)(=O)Nc3ccc4c(c3)CCN(C)C4)cc2)c(Cl)c1Cl` [H1017], for which the fraction unbound in data set [11] amounted to 0.001; in data set [12], 0.0003. Also, in [4] (setting [16]), the EC50 came out at 0.0098 µM. In addition, the IC50 in data set [5] (setting [17]) is 0.072 µM. In [6], the “Metabolic Stability Study M = mouse” value worked out at 30.5 µL/min/mg. Moreover, the “Metabolic Stability Study H = human” value in [8] was found to be 11.5 µL/min/mg.
